The structures appear in SMILES notation. Values after ≈ are worked out from the molar mass of the structure shown.

In general, solubility (kinetic) refers to the concentration staying in solution when a stock, usually in DMSO, is diluted into the medium.

The conditions of this data set: buffer; pH 7.4; 200.0 µM.
`Cl.N=c1ccn(Cc2ccc([N+](=O)[O-])cc2)cc1` showed a kinetic solubility of over 39.9 µg/mL.

`O=C(COc1ccc(Cl)cc1Cl)OCC(=O)c1ccc[nH]1` displayed a solubility (kinetic) of 8.2 µg/mL (≈ 25 µM).

Regarding `O=C(O)c1cc(Cl)c(Cl)cc1C(=O)NCc1ccco1`, the solubility (kinetic) is over 47.1 µg/mL.

The molecule `COCCN(C(=S)Nc1cccc(C)c1C)C(C)c1ccco1` (configuration not stated) showed a kinetic solubility of 40.1 µg/mL (≈ 121 µM).

As for `COc1cc(S(=O)(=O)NC2CCCC2)c(OC)cc1C`, the solubility (kinetic) came out at 26.5 µg/mL (≈ 88.5 µM).

In turn, `O=C(NCc1ccco1)c1cc([N+](=O)[O-])ccc1Cl` came in with a solubility (kinetic) of 28.3 µg/mL (≈ 101 µM). This solubility kinetic and that of the molecule before are within 1.5-fold of each other.

`CC(C)(CCl)C(=O)Nc1ccnc(-c2ccncc2)n1` yielded a kinetic solubility of 6 µg/mL (≈ 20.6 µM). Against the preceding molecule, the solubility kinetic is about 4.7-fold lower.

Consider `CC(C)N1CC(C(=O)Nc2ccc(C#N)cc2)CC1=O` (configuration not stated), for which the solubility (kinetic) was over 40.7 µg/mL.

With `CCC(C(=O)NCCc1c[nH]c2ccc(C)cc12)c1ccccc1` (configuration not stated), the solubility (kinetic) worked out at 26.4 µg/mL (≈ 82.4 µM).

On to `N#CC1=C(N)Oc2cc(N)ccc2C1c1ccccc1Cl` (configuration not stated), for which the solubility (kinetic) was 32.9 µg/mL (≈ 110 µM).

Take `COc1ccc(NC(=O)C2CCCN(S(C)(=O)=O)C2)c(OC)c1` (configuration not stated): the solubility (kinetic) was over 51.4 µg/mL.

In the case of `O=C(CSc1nnc(Nc2ccccc2F)s1)NCC1CCCO1` (configuration not stated), the kinetic solubility is over 55.3 µg/mL.

`Cc1nc2ccccn2c1C(=O)CSc1cccc(Cl)c1` displayed a solubility (kinetic) of 3.9 µg/mL (≈ 12.3 µM).

For `C=CCSc1nsc(NC(=O)Nc2ccc(F)cc2)n1`, the solubility (kinetic) worked out at 1.2 µg/mL (≈ 3.87 µM).

As for `OCCCN=C1CCCc2c1[nH]c1ccc(Cl)cc21`, the kinetic solubility came out at 14.4 µg/mL (≈ 52 µM).

Turning to `CCOc1ccc(CN(C)CC(=O)Nc2cccc(C)c2)cc1OC`, the kinetic solubility was over 51.4 µg/mL.

Consider `CC(OC(=O)C1=Cc2ccccc2OC1)C(=O)NCc1ccco1` (configuration not stated), for which the solubility (kinetic) was 7.1 µg/mL (≈ 21.7 µM).

On to `COc1ccc(C(=O)/C=C2/C(=O)Nc3ccccc32)cc1OC`, for which the kinetic solubility amounted to 1.2 µg/mL (≈ 3.88 µM).

Consider `CC1CCCC(C)N1CC(O)COCc1ccccc1F.Cl` (configuration not stated), for which the solubility (kinetic) came to 45.6 µg/mL.

With `Cc1c(C(=O)Nc2ccccc2)c2ccc(C(F)(F)F)cc2n1O`, the solubility (kinetic) stood at 1 µg/mL (≈ 2.99 µM).

Turning to `CCOc1ccc(C(=O)n2cc(C(=O)OC)c3ccccc32)cc1OCC`, the solubility (kinetic) stood at 3.9 µg/mL (≈ 10.6 µM).

`O=C(Nc1cc(Cl)cc(Cl)c1)c1ccno1`: the solubility (kinetic) was 8.4 µg/mL (≈ 32.7 µM).

For the molecule `CCC1CN(C(=O)NCc2ccccc2)c2cc(Cl)ccc2O1` (configuration not stated), the solubility (kinetic) is under 0.4 µg/mL.

Molecule `Cc1ccc(S(=O)(=O)N2CCCCC2)cc1C(=O)N1C(C)CCCC1C` (configuration not stated) displayed a solubility (kinetic) of over 56.8 µg/mL.

As for `CC(=O)C1=C(O)C(=O)N(c2ccc(O)cc2)C1c1cccc(F)c1` (configuration not stated), the solubility (kinetic) is over 49.1 µg/mL.

Consider `COc1ccccc1-c1nc2ccccc2c(=O)n1O`, for which the kinetic solubility is over 40.2 µg/mL.

`Nc1nc2ccccc2cc1-c1cccs1` gave a solubility (kinetic) of 27.7 µg/mL (≈ 122 µM).

With `Cc1nc(C)c(-c2csc(Nc3ccc(S(N)(=O)=O)cc3)n2)s1`, the solubility (kinetic) was found to be 0.3 µg/mL (≈ 0.819 µM).

`Cc1cc(Nc2ccccc2)n(-c2ccc(C(=O)O)cc2)n1`: the solubility (kinetic) is over 44 µg/mL.

Molecule `Cc1cc(C(=O)Nc2ccccc2Cl)c2ccccc2n1` displayed a kinetic solubility of 36.8 µg/mL (≈ 124 µM).

For `O=C(NCc1ccccc1)c1ccc[n+]([O-])c1`, the kinetic solubility was over 34.2 µg/mL.

`CC1CCCC(NC(=O)CNC(=O)c2cccs2)C1C` (configuration not stated) showed a kinetic solubility of over 44.2 µg/mL.

The molecule `O=C(COC(=O)c1cnccn1)Nc1cccc(F)c1` returned a solubility (kinetic) of over 41.3 µg/mL.

In turn, `COc1ccc(Cl)cc1-c1csc(N)n1` returned a kinetic solubility of 34.1 µg/mL (≈ 142 µM).

In turn, `Cc1cccc(C(=O)NCC(=O)N(C)Cc2nc3ccccc3c(=O)[nH]2)c1` showed a solubility (kinetic) of over 54.7 µg/mL.

Consider `Cc1ccc(N2CCN(c3ccc([N+](=O)[O-])cn3)CC2)c(C)c1`, for which the solubility (kinetic) worked out at 0.3 µg/mL (≈ 0.96 µM).

As for `CC(=O)N1CCN(c2ccccc2NC(=O)COc2ccccc2C)CC1`, the kinetic solubility is 49.7 µg/mL (≈ 135 µM).

For the molecule `CC1(C)C(=O)Nc2ccccc2N1C(=O)COC(=O)Cc1ccccc1F`, the solubility (kinetic) was over 55.6 µg/mL.

As for `COc1ccc(C(=O)Nc2cccc3c2CCCC3)cc1`, the kinetic solubility was under 0.6 µg/mL.

`COc1cccc(C=Nc2ccc3c(c2)CCC3)c1O`: the solubility (kinetic) was 26.8 µg/mL (≈ 100 µM).

`N#C/C=C/N1CCC(Cc2ccccc2)CC1`: the solubility (kinetic) came to 29.6 µg/mL (≈ 131 µM).

`COc1ccc2nc3oc(C(=O)NCCCOC(C)C)cc3cc2c1` yielded a kinetic solubility of 12 µg/mL (≈ 35 µM).

In turn, `CCNc1nc(NC(C)C)nc(N(C)C#N)n1` returned a kinetic solubility of over 35.3 µg/mL.

`COc1cc(NC(=S)Nc2cccnc2)cc(OC)c1` displayed a solubility (kinetic) of under 0.2 µg/mL.

Regarding `Cn1c(COc2ccccc2O)[n+](C)c2ccccc21.[Br-]`, the kinetic solubility is over 52.4 µg/mL.

`O=C(CCc1c[nH]c2ccccc12)NCCc1ccccc1`: the solubility (kinetic) came out at 28.5 µg/mL (≈ 97.5 µM).

`COc1ccc([N+](=O)[O-])cc1NC(=O)Cc1noc2ccccc12` returned a kinetic solubility of 0.3 µg/mL (≈ 0.917 µM).

Take `CSc1ccccc1C(=O)OCC(=O)Nc1ccc(N2CCOCC2)cc1`: the kinetic solubility was found to be 9.3 µg/mL (≈ 24.1 µM).

As to `CCCCC(CC)CNC(=O)C(=O)C1C(=O)Nc2ccccc21` (configuration not stated), the kinetic solubility was 26.1 µg/mL (≈ 82.5 µM).

In turn, `Cc1ccc2oc(C(=O)NCC(c3ccco3)N(C)C)c(C)c2c1` (configuration not stated) yielded a kinetic solubility of over 49 µg/mL.

In turn, `O=C(Cc1ccccc1)Nc1nccs1` came in with a solubility (kinetic) of over 32.7 µg/mL.

With `Cc1ccc(NC(=O)CN2C(=O)NC3(CCCc4ccccc43)C2=O)c([N+](=O)[O-])c1` (configuration not stated), the kinetic solubility is 36.5 µg/mL (≈ 89.4 µM).
